Values quoted from earlier work, collected in US8431151B2, “Antimicrobial nanostructured hydrogel web containing silver” (Syracuse University, priority 2009, dated 2013).

Tests used:
[1] = tested on: 16 bacterial species including Escherichia coli, Pseudomonas aeruginosa, and Staphylococcus aureus; conditions: 16 bacterial species tested
[2] = tested on: mouse bone marrow cells; conditions: 4 μg/mL silver (Ag^+)

[Ag+] [silver (Ag^+)]
silver concentration at which bacterial species are inhibited [1]: 1.25 µg/mL
detrimental effects to mouse bone marrow cells [2]: does not exhibit any obvious detrimental effects
